Literature values in US20230000786A1, “TREATMENT OF SKIN DISORDERS WITH TOPICAL COMPOSITIONS COMPRISING TAPINAROF AND A PDE4 INHIBITOR” (Sol-Gel Technologies Ltd., priority 2019, published 2023).
Read-outs that look alike come from different tables or passages of the source.

How the values were obtained:
[1] = psoriasis treatment, single drug; placebo 20.2%
[2] = test system: proinflammatory mediators, including interleukin-6 and interleukin-17A; conditions: mouse models
[3] = test system: proinflammatory mediators, including interleukin-6 and interleukin-17A; conditions: in vitro human skin studies
[4] = 1% tapinarof arm compared with 0.5% arm or vehicle
[5] = across all groups treated
[6] = interleukin-6 and interleukin-17A

Compound | adverse effects [1] [%] | skin barrier function [2] | inhibition of specific proinflammatory mediators [2, 6] | skin barrier function [3] | inhibition of specific proinflammatory mediators [3, 6] | efficacy [4] | onset of action [4] | folliculitis side-effect [5] [%] | contact dermatitis side-effect ([5]; listed among most common side-effects (>5%)) [%]
C=C1/C(=C\C=C2/CCC[C@]3(C)[C@@H]([C@H](C)/C=C/[C@@H](O)C4CC4)CC[C@@H]23)C[C@@H](O)C[C@@H]1O [calcipotriene] | 19.5 |  |  |  |  |  |  |  | 
CC(C)c1c(O)cc(/C=C/c2ccccc2)cc1O [Tapinarof, 3,5-dihydroxy-4-isopropyl-trans-stilbene] | 44.5 | enhance skin barrier function | inhibit specific proinflammatory mediators | enhance skin barrier function | inhibit specific proinflammatory mediators | higher efficacy | quicker onset of action | 9 | > 5
